SMILES strings stand for the structures.

Here are results for one molecule from US6174873A, “Oral administration of adenosine analogs” (SuperGen, Inc., priority 1998, dated 2001).

This series is described as follows: Survival of beagle dogs during the dCF bioavailability study. The class given is in vivo. The following applies: four female beagle dogs, 0.25 mg/kg IV or 1.25-5.0 mg/kg PO for 2 days. An excerpt: Four female beagle dogs were assigned to this study.

Turning to `OC[C@H]1O[C@@H](n2cnc3c2NC=NC[C@H]3O)C[C@@H]1O` [dCF, 2'-deoxycoformycin], the “mortality during the course of the study” value is “None of the dogs died”.
